# Experimental data as given in patent US20150196612A1, “Anti-enterovirus 71 steroidal saponins and their preparation” (Shanghai University of Traditional Chinese Medicine, priority 2014, published 2015).
# Tests used:
# enterovirus 71 (EV71) = assay: anti-EV71 activity (antiviral bioassay); type: cell-based
# [1] = cytotoxicity (CC50) of steroidal saponins
# [2] = test system: respiratory syncytial virus (RSV); conditions: read-out: IC50, inhibitory effects on RSV; cited from earlier work
compound,measurement,setting,value
"NC(=O)c1ncn([C@@H]2O[C@H](CO)[C@@H](O)[C@H]2O)n1 [Ribavirin, ribavirin, reference compound]",Selective Index (SI),enterovirus 71 (EV71); FIG. 6,2.365
"C[C@@H](CC[C@@]1(O)O[C@H]2C[C@H]3[C@@H]4CC[C@@H]5C[C@@H](O[C@@H]6O[C@H](CO)[C@H](O)[C@H](O)[C@H]6O[C@@H]6O[C@H](CO)[C@@H](O)[C@H](O)[C@H]6O)CC[C@]5(C)[C@H]4CC[C@]3(C)[C@H]2[C@@H]1C)CO[C@@H]1O[C@H](CO)[C@@H](O)[C@H](O)[C@H]1O [compound 2, timosaponin B-II]",CC50,[1],401000 nM
same,Selective Index (SI),enterovirus 71 (EV71); FIG. 6,92.876
same,IC50 as percentage of that of positive control ribavirin,enterovirus 71 (EV71); relative to ribavirin,1%
same,selectivity index relative to ribavirin's,enterovirus 71 (EV71); relative to ribavirin,more than 40 times
"CC1=C(CCC(C)CO[C@@H]2O[C@H](CO)[C@@H](O)[C@H](O)[C@H]2O)O[C@H]2CC3C4CCC5CC(O[C@@H]6O[C@H](CO)[C@H](O)[C@H](O)[C@H]6O[C@@H]6O[C@H](CO)[C@@H](O)[C@H](O)[C@H]6O)CC[C@]5(C)C4CC[C@]3(C)[C@@H]12 (stereo partly drawn) [compound 3, anemarsaponin B]",anti-EV71 activity of compounds (in words),enterovirus 71 (EV71); FIG. 6,completely inactive
"C[C@H]1CC[C@@]2(OC1)O[C@H]1C[C@H]3[C@@H]4CC[C@@H]5C[C@@H](O[C@@H]6O[C@H](CO)[C@H](O)[C@H](O)[C@H]6O[C@@H]6O[C@H](CO)[C@@H](O)[C@H](O)[C@H]6O)CC[C@]5(C)[C@H]4CC[C@]3(C)[C@H]1[C@@H]2C [compound 7, timosaponin A-III]",IC50,[2],1000 nM
same,IC50,"enterovirus 71 (EV71); FIG. 6, read-out: IC50 (50% inhibitory concentration), anti-EV71",1060 nM
"C[C@H]1CC[C@@]2(OC1)O[C@H]1C[C@H]3[C@@H]4CC[C@@H]5C[C@@H](O)CC[C@]5(C)[C@H]4CC[C@]3(C)[C@H]1[C@@H]2C [compound 8, Sarsasapogenin, reference compound]",anti-EV71 activity of compounds (in words),enterovirus 71 (EV71); FIG. 6,completely inactive
